From patent publication US6689779B2, “Oxazolidinone derivatives and a process for the preparation thereof” (priority 2000, dated 2004) come the findings set out here.

Converted amounts (≈) assume the structure as drawn.

In the first test the test system is ATCC 35837: Ethanmbutol resistant Mycobacterium tuberculosis. The test is described as follows: Assay for in vitro antibacterial activity, agar dilution method: ATCC 35837. Type of test: cell-based. As to conditions: Mycobacterium tuberculosis, ATCC35837, read-out: Antibacterial Activity (MIC50) ATCC 35837.
Turning to `N[C@@H]1CON=C1O` [Cycloserine, reference compound], the MIC50 was found to be 6.25 µg/mL (≈ 61.2 µM).

For the molecule `CO[C@H]1/C=C/O[C@@]2(C)Oc3c(C)c(O)c4c(O)c(c(/C=N/N5CCN(C)CC5)c(O)c4c3C2=O)NC(=O)/C(C)=C\C=C\[C@H](C)[C@H](O)[C@@H](C)[C@@H](O)[C@@H](C)[C@H](OC(C)=O)[C@@H]1C` [Rifampin, reference compound], the MIC50 was 0.2 µg/mL (≈ 0.243 µM). The same measure, in the same setting: as for `CC(=O)NC[C@H]1CN(c2ccc(N3CCOCC3)c(F)c2)C(=O)O1` [Example U-100766, reference compound], the figure is 1.56 µg/mL (≈ 4.62 µM).

The same test, now with this note: agar dilution method; Ethanmbutol resistant Mycobacterium tuberculosis.
On to `CC(=O)NC[C@H]1CN(c2ccc(-c3ccc(-c4nnn(C)n4)nc3)c(F)c2)C(=O)O1` [Exmp. 140, (S)-[N-3-(4-(2-(2-methyl-5-tetrazolyl)-pyridin-5-yl)-3-fluorophenyl)-2-oxo-5-oxazolidinyl]methyl acetamide], for which the “Antibacterial Activity (MIC50) ATCC 35837” value was found to be 0.1 µg/mL. On the same count and under the same terms, in the case of `CC(=O)NC[C@H]1CN(c2ccc(-c3ccc(-n4cncn4)nc3)c(F)c2)C(=O)O1` [Exmp. 129, (S)-[N-3-(4-(2-(1,2,4-triazol-1-yl)pyridin-5-yl)-3-fluorophenyl)-2-oxo-5-oxazolidinyl]methyl acetamide] it was 0.2 µg/mL; in that of `CC(=O)NC[C@H]1CN(c2ccc(-c3ccc(-n4cnnn4)nc3)c(F)c2)C(=O)O1` [Exmp. 136, (S)-(N-3-(4-(2-(1-tetrazolyl)-pyridin-5-yl)-3-fluorophenyl)-2-oxo-5-oxazolidinyl)methyl acetamide], 0.1 µg/mL; in that of `CC(=O)NC[C@H]1CN(c2ccc(-c3ccc(-c4nnn[nH]4)nc3)c(F)c2)C(=O)O1` [Exmp. 152, (S)-[N-3-(4-(2-(5-Tetrazolyl)-5-pyridinyl)-3-fluorophenyl)-2-oxo-5-oxazolidinyl]methyl Acetamide], over 25 µg/mL. The same measure, in the same setting: as for `CC(=O)NC[C@H]1CN(c2ccc(-c3ccc(N4CCOC4=O)nc3)c(F)c2)C(=O)O1` [Exmp. 143, (S)-[N-3-(4-(2-(2-oxo-(1,3)-oxazolidin-3-yl)-pyridin-5-yl)-3-fluorophenyl)-2-oxo-5-oxazolidinyl]methyl acetamide], the figure is 0.1 µg/mL; as for `CC(=O)NC[C@H]1CN(c2ccc(-c3ccc(-c4nnnn4C)nc3)c(F)c2)C(=O)O1` [Exmp. 139, (S)-[N-3-(4-(2-(1-methyl-5-tetrazolyl)-pyridin-5-yl)-3-fluorophenyl)-2-oxo-5-oxazolidinyl]methyl acetamide], 0.1 µg/mL.

With `CC(=O)NC[C@H]1CN(c2ccc(-c3ccc(-c4nnc(C)o4)nc3)c(F)c2)C(=O)O1` [Exmp. 137, (S)-[N-3-(4-(2-(5-methyl-(1,3,4)-oxadiazol-2-yl)-pyridin-5-yl)-3-fluorophenyl)-2-oxo-5-oxazolidinyl]methyl acetamide], the “Antibacterial Activity (MIC50) ATCC 35837” value worked out at 0.1 µg/mL. On the same count and under the same terms, as for `CC(=O)NC[C@H]1CN(c2ccc(-c3ccc(-c4noc(C)n4)nc3)c(F)c2)C(=O)O1` [Exmp. 138, (S)-[N-3-(4-(2-(5-methyl-(1,2,4)-oxadiazol-3-yl)pyridin-5-yl)-3-fluorophenyl)-2-oxo-5-oxazolidinyl]methyl acetamide], the figure is 0.1 µg/mL.

Usually MIC50 stands for an inhibitory concentration at the 50% level, which refers to growth in some studies and to a panel of isolates in others.
